According to patent US9296734B2 (AMGEN INC., priority 2013, dated 2016):
pIC50: −log10 of the molar value. Read-outs that look alike come from different tables or passages of the source.

Tests used:
Cathepsin D (Cat D) = Cathepsin D (Cat D) (Homo sapiens (Human), UniProt P07339); assay: In vitro enzymatic Cathepsin D (Cat D) FRET assay; type: biochemical; settings: read-out: CatD IC50
Procedure, shortened: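 CHO-expressed recombinant Cat D cleaves a fluorophore/quencher FRET peptide (20 nM) in 0.05 M citrate pH 3.5, 5 mM CHAPS, 10% DMSO final, over 1 h. Tris addition neutralizes pH to stop the reaction; fluorescence read at excitation 500 nm, emission 580 nm.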

[1] = biological target: Beta Secretase enzyme (BACE) (Homo sapiens (Human), UniProt P56817); assay: In vitro enzymatic BACE FRET assay; type: biochemical; settings: read-out: BACE 1 FRET assay IC50
Beta Secretase enzyme (BACE), sequence (P56817 46-501): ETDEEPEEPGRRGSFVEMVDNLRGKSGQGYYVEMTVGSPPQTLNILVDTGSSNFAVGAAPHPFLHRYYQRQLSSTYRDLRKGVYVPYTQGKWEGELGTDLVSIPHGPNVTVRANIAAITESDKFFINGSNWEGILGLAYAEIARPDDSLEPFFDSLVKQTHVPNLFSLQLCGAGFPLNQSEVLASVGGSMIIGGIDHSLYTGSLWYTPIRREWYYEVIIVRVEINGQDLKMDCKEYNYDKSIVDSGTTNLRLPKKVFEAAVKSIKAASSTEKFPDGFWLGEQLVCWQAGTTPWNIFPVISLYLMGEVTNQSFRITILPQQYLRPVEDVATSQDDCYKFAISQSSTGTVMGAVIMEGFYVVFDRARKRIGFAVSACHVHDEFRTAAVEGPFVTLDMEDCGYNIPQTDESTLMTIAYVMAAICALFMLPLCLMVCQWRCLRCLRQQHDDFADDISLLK
Procedure, shortened: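 Reactions ran in 0.05 M acetate pH 4.2 with 10% DMSO final and 100 uM genapol. They were started with 50 nM peptide FRET substrate (fluorophore and quencher flanking the BACE cleavage site) and incubated one hour. Tris addition raised the pH to neutral to stop the reaction before fluorescence reading.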

[2] = test system: Aβ40 in conditioned medium of cells stably expressing Amyloid Precursor Protein (APP); assay: In vitro BACE cell-based assay (Aβ40 sandwich ELISA); settings: Homo sapiens
Procedure, shortened: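 Secreted Aβ40 was quantified by sandwich ELISA (pAb40 capture, biotinylated 6E10 detection, Europium time-resolved fluorescence). IC50 derived from percent inhibition versus concentration.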

[3] = HEK293, HEK cells, average, read-out: HEK cell assay IC50
[4] = average IC50, cathepsin D enzyme assay
[5] = average IC50, BACE enzyme assay
[6] = HEK293, average IC50, HEK cell assay, read-out: HEK cell assay IC50
[7] = HEK293, average IC50, HEK cells, read-out: HEK cell assay IC50
[8] = HEK293, read-out: HEK cell assay IC50

Cathepsin D (Cat D), sequence (P07339 65-412, species assumed): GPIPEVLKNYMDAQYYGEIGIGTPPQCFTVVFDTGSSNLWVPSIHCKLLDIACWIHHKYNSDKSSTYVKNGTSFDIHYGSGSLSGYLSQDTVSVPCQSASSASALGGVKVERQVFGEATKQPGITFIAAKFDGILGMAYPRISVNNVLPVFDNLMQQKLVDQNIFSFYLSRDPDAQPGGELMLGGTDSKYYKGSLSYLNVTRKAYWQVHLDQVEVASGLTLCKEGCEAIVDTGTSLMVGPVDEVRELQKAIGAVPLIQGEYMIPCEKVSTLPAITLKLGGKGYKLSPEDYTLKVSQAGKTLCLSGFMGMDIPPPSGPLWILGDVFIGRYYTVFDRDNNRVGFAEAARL

NC1=N[C@](CF)(c2cc(C#Cc3ccc4cc[nH]c4c3)ccc2F)C[C@@H](C(F)(F)F)O1 [Example 132, (4S,6S)-4-(5-((1H-indol-6-yl)ethynyl)-2-fluorophenyl)-4-(fluoromethyl)-6-(trifluoromethyl)-5,6-dihydro-4H-1,3-oxazin-2-amine]
pIC50 (Cathepsin D (Cat D); average): 3.14
pIC50 ([1]; average): 5.66
pIC50 [2, 3]: 5.51

NC1=N[C@](CF)(c2cc(C#Cc3cccc4cc[nH]c34)ccc2F)C[C@@H](C(F)(F)F)O1 [Example 133, (4S,6S)-4-(5-((1H-indol-7-yl)ethynyl)-2-fluorophenyl)-4-(fluoromethyl)-6-(trifluoromethyl)-5,6-dihydro-4H-1,3-oxazin-2-amine]
pIC50 (Cathepsin D (Cat D); average): 2.95
pIC50 ([1]; average): 5.25
pIC50 [2, 3]: 5.34

N#Cc1ccc(C(=O)Nc2ccc(F)c([C@]3(CF)C[C@@H](C(F)(F)F)OC(N)=N3)n2)nc1 [Example 134, N-(6-((4S,6S)-2-amino-4-(fluoromethyl)-6-(trifluoromethyl)-5,6-dihydro-4H-1,3-oxazin-4-yl)-5-fluoropyridin-2-yl)-5-cyanopicolinamide]
pIC50 (Cathepsin D (Cat D); [4]): < 3.40
pIC50 [1, 5]: 7.10
pIC50 [2, 6]: 7.26

NC1=N[C@](CF)(c2nc(NC(=O)c3ccc(Cl)cn3)ccc2F)C[C@@H](C(F)(F)F)O1 [Example 136, N-(6-((4S,6S)-2-amino-4-(fluoromethyl)-6-(trifluoromethyl)-5,6-dihydro-4H-1,3-oxazin-4-yl)-5-fluoropyridin-2-yl)-5-chloropicolinamide]
pIC50 (Cathepsin D (Cat D); [4]): 3.14
pIC50 (Cathepsin D (Cat D); average IC50): < 3.40
pIC50 [1, 5]: 6.77
pIC50 ([1]; average IC50): 4.49
pIC50 [2, 6]: 6.88
pIC50 [2, 7]: < 4.81

NC1=N[C@](CF)(c2cc(N)cnc2F)C[C@@H](C(F)(F)F)O1 [Example 138, (4S,6S)-4-(5-amino-2-fluoropyridin-3-yl)-4-(fluoromethyl)-6-(trifluoromethyl)-5,6-dihydro-4H-1,3-oxazin-2-amine]
pIC50 (Cathepsin D (Cat D); average IC50): < 3.40
pIC50 ([1]; average IC50): < 4.40
pIC50 [2, 7]: < 4.81

NC1=N[C@](CF)(c2cc(NC(=O)c3ccc(Cl)cn3)cnc2F)C[C@@H](C(F)(F)F)O1 [Example 139, N-(5-((4S,6S)-2-amino-4-(fluoromethyl)-6-(trifluoromethyl)-5,6-dihydro-4H-1,3-oxazin-4-yl)-6-fluoropyridin-3-yl)-5-chloropicolinamide]
pIC50 (Cathepsin D (Cat D); average IC50): < 3.40
pIC50 ([1]; average IC50): 7.02
pIC50 [2, 8]: 6.38

Cc1cc(C#N)cnc1C(=O)Nc1cnc(F)c([C@]2(CF)C[C@@H](C(F)(F)F)OC(N)=N2)c1 [Example 140, N-(5-((4S,6S)-2-amino-4-(fluoromethyl)-6-(trifluoromethyl)-5,6-dihydro-4H-1,3-oxazin-4-yl)-6-fluoropyridin-3-yl)-5-cyano-3-methylpicolinamide]
pIC50 (Cathepsin D (Cat D); average IC50): < 3.40
pIC50 ([1]; average IC50): 6.95
pIC50 [2, 7]: 6.47

N#Cc1ccc(C(=O)Nc2cnc(F)c([C@]3(CF)C[C@@H](C(F)(F)F)OC(N)=N3)c2)nc1 [Example 141, N-(5-((4S,6S)-2-amino-4-(fluoromethyl)-6-(trifluoromethyl)-5,6-dihydro-4H-1,3-oxazin-4-yl)-6-fluoropyridin-3-yl)-5-cyanopicolinamide]
pIC50 (Cathepsin D (Cat D); average IC50): 2.75
pIC50 ([1]; average IC50): 6.77
pIC50 [2, 7]: 6.19

COc1ccc(C(=O)Nc2cnc(F)c([C@]3(CF)C[C@@H](C(F)(F)F)OC(N)=N3)c2)nc1 [Example 142, N-(5-((4S,6S)-2-amino-4-(fluoromethyl)-6-(trifluoromethyl)-5,6-dihydro-4H-1,3-oxazin-4-yl)-6-fluoropyridin-3-yl)-5-methoxypicolinamide]
pIC50 (Cathepsin D (Cat D); average IC50): 2.26
pIC50 ([1]; average IC50): 6.94
pIC50 [2, 7]: 6.23

NC1=N[C@](CF)(c2cccc(NC(=O)c3ccc(Cl)cn3)c2)C[C@@H](C(F)(F)F)O1 [Example 143, N-(3-((4S,6S)-2-amino-4-(fluoromethyl)-6-(trifluoromethyl)-5,6-dihydro-4H-1,3-oxazin-4-yl)phenyl)-5-chloropicolinamide]
pIC50 (Cathepsin D (Cat D); average IC50): 2.63
pIC50 ([1]; average IC50): 6.93
pIC50 [2, 7]: 6.81

N#Cc1ccc(C(=O)Nc2cccc([C@]3(CF)C[C@@H](C(F)(F)F)OC(N)=N3)c2)nc1 [Example 144, N-(3-((4S,6S)-2-amino-4-(fluoromethyl)-6-(trifluoromethyl)-5,6-dihydro-4H-1,3-oxazin-4-yl)phenyl)-5-cyanopicolinamide]
pIC50 (Cathepsin D (Cat D); average IC50): 3.18
pIC50 ([1]; average IC50): 7.05
pIC50 [2, 7]: 7.17

NC1=N[C@](CF)(c2cccc(Nc3nccc4cc(Cl)cnc34)c2)C[C@@H](C(F)(F)F)O1 [Example 146, (4S,6S)-4-(3-((3-chloro-1,7-naphthyridin-8-yl)amino)phenyl)-4-(fluoromethyl)-6-(trifluoromethyl)-5,6-dihydro-4H-1,3-oxazin-2-amine]
pIC50 (Cathepsin D (Cat D); average IC50): 3.13
pIC50 ([1]; average IC50): 7.17
pIC50 [2, 7]: 6.92

COc1ncc(NC(=O)c2ccc(Cl)cn2)cc1[C@]1(C)C[C@@H](C(F)(F)F)OC(N)=N1 [Example 147, N-(5-((4S,6S)-2-amino-4-methyl-6-(trifluoromethyl)-5,6-dihydro-4H-1,3-oxazin-4-yl)-6-methoxypyridin-3-yl)-5-chloropicolinamide]
pIC50 (Cathepsin D (Cat D); average IC50): 2.85
pIC50 ([1]; average IC50): 6.60
pIC50 [2, 7]: 6.92

Cn1cc(NC(=O)c2ccc(Cl)cn2)cc([C@]2(C)C[C@@H](C(F)(F)F)OC(N)=N2)c1=O [Example 148, N-(5-((4S,6S)-2-amino-4-methyl-6-(trifluoromethyl)-5,6-dihydro-4H-1,3-oxazin-4-yl)-1-methyl-6-oxo-1,6-dihydropyridin-3-yl)-5-chloropicolinamide]
pIC50 (Cathepsin D (Cat D); average IC50): < 3.40
pIC50 ([1]; average IC50): 6.44
pIC50 [2, 8]: 7.90

Cn1cc(NC(=O)c2ccc(C#N)cn2)cc([C@]2(C)C[C@@H](C(F)(F)F)OC(N)=N2)c1=O [Example 149, N-(5-((4S,6S)-2-amino-4-methyl-6-(trifluoromethyl)-5,6-dihydro-4H-1,3-oxazin-4-yl)-1-methyl-6-oxo-1,6-dihydropyridin-3-yl)-5-cyanopicolinamide]
pIC50 (Cathepsin D (Cat D); average IC50): < 3.40
pIC50 ([1]; average IC50): 6.62
pIC50 [2, 7]: 7.68

Cc1cc(C#N)cnc1C(=O)Nc1cc([C@]2(C)C[C@@H](C(F)(F)F)OC(N)=N2)c(=O)n(C)c1 [Example 150, N-(5-((4S,6S)-2-amino-4-methyl-6-(trifluoromethyl)-5,6-dihydro-4H-1,3-oxazin-4-yl)-1-methyl-6-oxo-1,6-dihydropyridin-3-yl)-5-cyano-3-methylpicolinamide]
pIC50 (Cathepsin D (Cat D); average IC50): < 3.40
pIC50 ([1]; average IC50): 6.92
pIC50 [2, 7]: 8.00

NC1=N[C@](CF)(c2cc(NC(=O)c3ccc(Cl)cn3)cc(F)c2F)C[C@@H](C(F)(F)F)O1 [Example 152, N-(3-((4S,6S)-2-amino-4-(fluoromethyl)-6-(trifluoromethyl)-5,6-dihydro-4H-1,3-oxazin-4-yl)-4,5-difluorophenyl)-5-chloropicolinamide]
pIC50 (Cathepsin D (Cat D); [4]): 2.56
pIC50 [1, 5]: 7.59
pIC50 [2, 6]: 7.06

COc1cnc(C(=O)Nc2cc(F)c(F)c([C@]3(CF)C[C@@H](C(F)(F)F)OC(N)=N3)c2)cn1 [Example 153, N-(3-((4S,6S)-2-amino-4-(fluoromethyl)-6-(trifluoromethyl)-5,6-dihydro-4H-1,3-oxazin-4-yl)-4,5-difluorophenyl)-5-methoxypyrazine-2-carboxamide]
pIC50 (Cathepsin D (Cat D); [4]): 2.47
pIC50 [1, 5]: 7.30
pIC50 [2, 6]: 6.90

COc1ccc(C(=O)Nc2cc(F)c(F)c([C@]3(CF)C[C@@H](C(F)(F)F)OC(N)=N3)c2)nc1 [Example 156, N-(3-((4S,6S)-2-amino-4-(fluoromethyl)-6-(trifluoromethyl)-5,6-dihydro-4H-1,3-oxazin-4-yl)-4,5-difluorophenyl)-5-methoxypicolinamide]
pIC50 (Cathepsin D (Cat D); [4]): < 3.40
pIC50 [1, 5]: 7.21
pIC50 [2, 6]: 6.91

C#CCOc1ccc(C(=O)Nc2cc(F)c(F)c([C@]3(CF)C[C@@H](C(F)(F)F)OC(N)=N3)c2)nc1 [Example 159, N-(3-((4S,6S)-2-amino-4-(fluoromethyl)-6-(trifluoromethyl)-5,6-dihydro-4H-1,3-oxazin-4-yl)-4,5-difluorophenyl)-5-(prop-2-yn-1-yloxy)picolinamide]
pIC50 (Cathepsin D (Cat D); [4]): < 3.40
pIC50 [1, 5]: 7.89
pIC50 [2, 6]: 7.03

NC1=N[C@](CF)(c2cc(Nc3nccc4cc(Cl)cnc34)cc(F)c2F)C[C@@H](C(F)(F)F)O1 [Example 161, (4S,6S)-4-(5-((3-chloro-1,7-naphthyridin-8-yl)amino)-2,3-difluorophenyl)-4-(fluoromethyl)-6-(trifluoromethyl)-5,6-dihydro-4H-1,3-oxazin-2-amine]
pIC50 (Cathepsin D (Cat D); [4]): < 3.40
pIC50 [1, 5]: 7.64
pIC50 [2, 6]: 6.27

COc1cc(C#N)cnc1C(=O)Nc1cc(F)c(F)c([C@]2(C)C[C@@H](C(F)(F)F)OC(N)=N2)c1 [Example 168, N-(3-((4S,6S)-2-amino-4-methyl-6-(trifluoromethyl)-5,6-dihydro-4H-1,3-oxazin-4-yl)-4,5-difluorophenyl)-5-cyano-3-methoxypicolinamide]
pIC50 (Cathepsin D (Cat D); [4]): < 3.40
pIC50 [1, 5]: 7.29
pIC50 [2, 8]: 8.21
